Results as given in US6518317B1, “Antiviral agents” (priority 1997, dated 2003).

Columns and labels:
[1] = system: Ad5 dlX [an adenovirus]; assay: Adenovirus hexon protein in HeLa cells treated with cyclopentenone before infection; format: cell-based; conditions: 10 μM or higher, six hours before infection, m.o.i. 50, 20 hours
Procedure: After that, the cells were washed with the DMEM containing 5% of fetal bovine serum, then the DMEM containing 5% of fetal bovine serum which contained Ad5 dlX [an adenovirus; Saito, etal.; Journal ofVirology, volume 54, pages 711-719 (1985)] was added to the cells so that the cells were infected therewith and incubation was conducted for 20 hours. […] The medium was discarded, 1 ml of 10% trichloroacetic acid was added to each of the wells and the cells were recovered by a scraper.
Then SDS-PAGE and blotting of the treated cells obtained hereinabove were conducted by the method of Example 1 to detect the expression of hexon proteins of the adenovirus. Incidentally, anti-adenovirus hexon antibody (AB 1056; manufactured by Chemicon International Inc.) was used as the primary antibody.

[2] = system: CEM-SS cells; assay: Survival rate of human T cells, CEM-SS; format: cell-based; conditions: 0.5-5 m M, three days
[3] = system: CEM-SS cells infected by HIV-1IIIB (CEM-3B); assay: Survival rate of HIV-infected T cells, CEM-3B; format: cell-based, human; conditions: three days
Procedure: The cyclopentenone (1-5 μM) was added to CEM-SS cells infected by HIV-1IIIB (abbreviated as CEM-3B) or to H9 cells infected by HIV-1IIIB (abbreviated as H9-3B) and incubated for three days. In both cells, 90% or more of the cells were infected by HIV-1IIIB. Numbers of living and dead cells were counted and the survival rate of the cells was calculated therefrom.
Thus, FIG. 3 and FIG. 4 are the graphs showing the relation between the concentration of the cyclopentenone added and the survival rate of the cells in which abscissa is the concentration (μM) of the cyclopentenone added While ordinate is the survival rate (%) of the cells after incubating for three days. FIG. 3 is the result when CEM-3B were used while FIG. 4 is the result when H9-3B were used.

[4] = system: 70 kd heat shock proteins; assay: Expression of 70 kd heat shock proteins in HeLa cells (SDS-PAGE and blotting); format: cell-based; design: key: +++: the sign “+” shows the potency of signals of the 70 kd heat shock proteins observed in the blotting the more the numbers of +, the more potent the signals; ++: the sign “+” shows the potency of signals of the 70 kd heat shock proteins observed in the blotting the more the numbers of +, the more potent the signals; the sign “+” shows the potency of signals of the 70 kd heat shock proteins observed in the blotting the more the numbers of +, the more potent the signals; The sign “±” means that the signal was very weak; conditions: six hours
Procedure: The medium was discarded, 1 ml of 10% trichloroacetic acid was added to each of the wells and the cells were recovered by a scraper.
The cells prepared as such were subjected to an SDS-PAGE and a blotting according to a method of Example 1 to detect the expression of 70 kd heat shock proteins.
As a result, induction of the 70 kd heat shock proteins noted in the sections to which the cyclopentenone of from 5 μM to 40 μM was added. […] The sign “±” means that the signal was very weak.

[5] = system: heat shock protein of 70 kDa; assay: Induction of heat shock protein of 70 kDa in HL-60 cells (SDS-PAGE and blotting); format: cell-based, human; design: key to Induction of Heat Shock Proteins: +++: “+” indicates degree of intensity of induction and the more the numbers of “+”, the more the intensity of induction; ++: “+” indicates degree of intensity of induction and the more the numbers of “+”, the more the intensity of induction; “+” indicates degree of intensity of induction and the more the numbers of “+”, the more the intensity of induction; “±” means the induction was slight; “−” means that no induction was noted; conditions: for Induction of Heat Shock Proteins: HL-60 cells, eight hours
Procedure: (1) An RPMI 1640 medium (5 ml) containing 10% of fetal bovine serum which contained 2×10^5 cells/ml of human promyelocytic leukemia cells HL-60 (ATCC CCL-240) was placed in each well of a six-well plate, incubated at 37° C. for 24 hours in the presence of 5% of CO2, then the cyclopentenone described in the referential example L was added thereto to make its final concentration 0, 10, 20, 30, 40, 50, or 100 μM and the incubation was further continued for eight hours more.
After completion of the incubation, cell numbers were counted and the cells were recovered by centrifugation and washed with phosphate-buffered saline (PBS) to prepare cyclopentenone-treated cells. In the meanwhile, cells which were heated at 45° C. for ten minutes followed by subjecting to the same incubation were prepared as well.
The cells treated as such were subjected to an SDS-polyacrylamid gel electrophoresis (SDS-PAGE) by a method mentioned in “Molecular Cloning” [Cold Spring Harbor Laboratory Press, (1989)]. The treated cells were suspended in an SDS-PAGE sample buffer to make the concentration 2.5×10^6 cells/ml, the resulting cell suspension was treated at 100° C. for ten minutes and each 5 μl thereof was applied to two sheets of SDS-PAGE gels (5% stacking gel; 10% separation gel) to conduct anelectrophoresis. One of the gels was Coomassie stained while another gel was subjected to a blotting to a polyvinylidene difluoride transfer membrane (Immobilon™, manufactured by Millipore, catalog no. IPVH000-10). The membrane was subjected to a blocking at 4° C. for one night with Block Ace (manufactured by Dainippon Pharmaceutical; catalog no. UK-B25).
The blocked membrane was made to react with monoclonal antibody HSP 72/73 (Ab-1) (manufactured by Oncogene Research Products, catalog no. HSP01) which would specifically react with heat-induced heat shock protein of 70 kDa and washed with TBS containing 0.05% of Tween 20 followed by further washing with TBS. After that, it was made to react with peroxidase-compounded secondary antibody HRP-Rabbit Anti-Mouse IgG (H+L) (manufactured by Zymed Laboratories, catalog no. 61-6520) and washed by the same manner as in the above operation. The membranes which were treated with primary and secondary antibodies as such were made to react with Renaissance™ (a chemiluminor reagent manufactured by Dupont NEN, catalog no. NEL-100) and photosensitized with an X-ray film to confirm the induction of heat shock protein of 70 kDa.
The result was that, by addition of cyclopentenone (20 to 30 μM), induction of heat shock protein of 70 kDa which is almost same as heat-treated at 45° C. for 10 minutes was confirmed. In Table 1, “+” indicates degree of intensity of induction and the more the numbers of “+”, the more the intensity of induction. Incidentally, “−” means that no induction was noted and “±” means the induction was slight.

[6] = Single oral administration toxicity in rats; format: in vivo; conditions: single oral administration of 100 mg/kg

## O=C1C=CC(O)C1O (stereo not drawn) [cyclopentenone, 4,5-dihydroxy-2-cyclopenten-1-one]
[1]
  amount of the hexon protein compared with the control: apparently decreased
[2]
  survival rate of the cells: no significant decrease
[3]; 3 μM
  survival rate of the cells: significantly decreased
[3]; 5 μM
  survival rate of the cells: further decreased
[4]; 5 μM
  Amount of 70 kd of Heat Shock Proteins: +
[4]; 10 μM
  Amount of 70 kd of Heat Shock Proteins: ++
[4]; 20 μM
  Amount of 70 kd of Heat Shock Proteins: +++
[4]; 40 μM
  Amount of 70 kd of Heat Shock Proteins: +++
[5]
  concentration at which the ability for inducing HSP70 becomes maximum: 20 to 30 µM
  concentration at which the ability for inducing HSP70 is noted: 10 µM
[5]; 10 μM
  Induction of Heat Shock Proteins: +
[5]; 20 μM
  Induction of Heat Shock Proteins: +++
[5]; 30 μM
  Induction of Heat Shock Proteins: +++
[5]; 40 μM
  Induction of Heat Shock Proteins: ++
[5]; 50 μM
  Induction of Heat Shock Proteins: +
[5]; 100 μM
  Induction of Heat Shock Proteins: ±
[5]; compared in molar concentration
  ability inducing the HSP70 compared with prostaglandin A1: equivalent
[6]
  dead cases: no dead case
